Laboratory results reported in US20140018350A1, “COMBINATION OF SULFONAMIDE COMPOUND AND TAFLUPROST” (priority 2012, published 2014).

Assay: Intraocular pressure lowering effect in monkeys with normal intraocular pressure after instillation
Type: in vivo, Cynomolgus monkey
Conditions: male cynomolgus monkeys with normal intraocular pressure, six per group, 20 μL instillation into one eye, 0.0006 w/v % present compound solution and/or Taflotan 0.0015%
From the text: In order to study the usefulness of a combination of the present compound with tafluprost, an intraocular pressure lowering effect when the present compound and tafluprost were concomitantly administered to experimental animals (monkeys with normal intraocular pressure) was examined.
An intraocular pressure lowering effect when the present compound and tafluprost were concomitantly administered was examined. As comparison subjects, intraocular pressure lowering effects when the present compound or tafluprost was administered singly were also examined. As a control, the base and physiological saline were administered.
Present compound solution: a 0.0006 w/v % present compound solution (instillation amount: 20 μL) […]
(2) Intraocular pressure was measured immediately before administering the test compound solution, and the measured intraocular pressure was defined as initial intraocular pressure. […]
(4) At 2, 4, 6 and 8 hours after instilling the present compound solution, one drop of the 0.4% oxybuprocaine hydrochloride eye drop was instilled into the eyes for which intraocular pressure was to be measured to effect local anesthesia, and then, intraocular pressure was measured. The intraocular pressure was measured in triplicate for each eye to obtain an average of three measurements, which is shown as the result. […]

Row | SMILES | Intraocular pressure lowering degree (change relative to average of control group) at 6 hours after instillation
1 | CC(C)OC(=O)CCC/C=C\C[C@@H]1[C@@H](/C=C/C(F)(F)COc2ccccc2)[C@H](O)C[C@@H]1O [tafluprost, 1-methylethyl (5Z)-7-{(1R,2R,3R,5S)-2-[(1E)-3,3-difluoro-4-phenoxy-1-butenyl]-3,5-dihydroxycyclopentyl}-5-heptenoate] | 1.9 mmHg
2 | CC(C)OC(=O)CNc1cccc(CN(Cc2ccc(-n3cccn3)cc2)S(=O)(=O)c2cccnc2)n1 [Present compound, isopropyl(6-{[4-(pyrazol-1-yl)benzyl](pyridin-3-ylsulfonyl)aminomethyl}pyridin-2-ylamino)acetate] | 2.6 mmHg
